A short description of data set [1]: IV and PO pharmacokinetics in mice. It is filed as in vivo, C57BL/6 male mice. The settings on record: male; for AUC(0-t) / half-life / C0 / Tmax / Cmax: mouse plasma; for C0 / Cmax: read-out: C0/Cmax; for bioavailability: C57BL/6, mouse, plasma, oral, 10 mg/kg, PO 10 mpk vs IV 1 mpk, read-out: %F (oral bioavailability); for bioavailability / clearance / Vd: mouse; for clearance / Vd: C57BL/6, plasma, 1 mg/kg; for Vd: read-out: Vss. Here is the method: IV and PO PK in rodents were processed by Sai Life Sciences Pvt. Ltd using 8‐ to 10‐week‐old C57BL/6 male mice following a single intravenous administration at 1 mg/kg and oral administration at 10 mg/kg. A total of eighteen mice (n = 9/group) were divided into two groups as Group 1 and Group 2, with a sparse sampling design (3 mice/time points). Animals in Group 1 were administered intravenously as slow bolus injections through the tail vein at 1 mg/kg dose, and animals in Group 2 were administered through the oral route at 10 mg/kg. For 0043, the formulation vehicle used for IV group was 5% NMP, 10% PG, 5% Solutol HS‐15, and 80% Captisol (10% w/v in RO water), and the formulation used for the PO group was 10% NMP, 10% PG, 10% TPGS, and 70% Captisol (10% w/v in RO water). For 0152, the formulation vehicle used for IV group was 5% DMSO, 20% Solutol HS‐15, and 75% PBS, and the formulation used for PO group was 5% NMP, 10% PG, 5% Solutol HS‐15, and 80% Captisol (10% w/v in RO water). Blood samples (approximately 60 µL) were collected under light isoflurane anesthesia (Surgivet) from retro orbital plexus from a set of three mice at 0.08, 0.25, 0.5, 1, 2, 4, 6, 8 and 24 h for IV and […], 0.5, 1, 2, 4, 6, 8 and 24 h for PO. Immediately after blood collection, plasma was harvested by centrifugation at 10 000 rpm, 10 min at […], and samples were stored at ‐70±10°C until bioanalysis. All samples were processed for analysis by the protein precipitation method and analyzed with a fit‐for‐purpose LC‐MS/MS method (LLOQ = 1.01 ng/mL). The plasma pharmacokinetic parameters were estimated using the non‐compartmental analysis tool of Phoenix WinNonlin software (Ver 8.3).

For data set [2], the target named is CAPRIN1–APP interaction (Homo sapiens, UniProt P05067+Q14444). The experiment in a line: CAPRIN1–APP interaction in cells (co-IP, confocal colocalization). The class given is cell-based. Also on record: endogenous in cells; host or cells: AG27606-Ns, sAD2.3-Ns (iPSC-derived neurons) and their lysates. The note with it: 10 µM, 24 h; for APP–CAPRIN1 colocalization (confocal, Pearson's coefficient): AG27606-Ns and sAD2.3-Ns. Here is the method:
Cells were lysed in 1% Triton X‐100 buffer (50 mM Tris (pH 7.4), 150 mM NaCl, 10% glycerol, 1% Triton X‐100, 1 mM EDTA) or RIPA buffer (50 mM Tris (pH7.5), 150 mM NaCl, 0.5% NP40, 0.5% deoxycholate, 0.1% SDS) supplemented with 1 mM PMSF, protease and phosphatase inhibitors. For immunoprecipitation, cell lysates (0.5–1 mg) were incubated with the primary antibodies (1–2 µg) overnight at 4°C and mixed with protein G beads for 4 h. The immunoprecipitants were washed with 1% Triton X‐100 buffer 3 times and eluted with Laemmli buffer, followed by western blot. Immunoprecipitations were performed using the following approaches: (i) Tagged CAPRIN1 immunoprecipitation (HEK293 overexpression assays): HEK293 cells were co‐transfected with APP constructs (including APP695‐HiBiT) and Flag‐ or Myc‐tagged CAPRIN1. CAPRIN1 was immunoprecipitated using anti‐Flag or anti‐Myc antibodies, and co‐precipitated APP was detected by immunoblot; (ii) Endogenous APP immunoprecipitation: APP was immunoprecipitated using anti‐APP antibody (Sigma, A8717), followed by immunoblotting for CAPRIN1. Where indicated, reciprocal immunoprecipitation using anti‐CAPRIN1 antibody was performed, followed by APP detection; (iii) CAPRIN1 immunoprecipitation: In selected experiments, CAPRIN1 was immunoprecipitated using anti‐CAPRIN1 antibody (Proteintech, 15112‐1‐AP), and co‐precipitated proteins including APP and LAMP1 were analyzed by immunoblot; (iv) HiBiT‐based pull‐down assays: In HEK293 cells expressing APP695‐HiBiT, APP constructs were immunoprecipitated using anti‐HiBiT antibody (Promega, N7200), followed by detection of CAPRIN1. Western blot bands were quantified using Fiji (ImageJ) with background subtraction and normalized to loading controls.
Cells were grown on glass cover slips coated with 1% Matrigel and treated with drugs. Cells were washed, fixed, permeabilized, blocked, and incubated in primary antibodies diluted in blocking solution (1% v/v BSA solution/5% Goat serum in PBS containing 0.1% Triton X‐100) overnight at 4°C. The cells were washed three times with PBS and incubated in secondary antibodies in a blocking solution for 1 h at room temperature, then washed with PBS, followed by HOECHST staining (Invitrogen) for 5 min, and washed with PBS. The glass coverslips were put on a slide‐in mounting medium ([…]), and the edges were sealed with coverslip sealant (BIOTIUM). […]
ImageJ (Fiji) program (NIH, Bethesda, MD, USA) was used o analyze images. Pearson's correlation coefficients were calculated with the JACoP plugin from two channels (BIOP). […] Colocalized areas were calculated in the image calculator tool ([…] function) to get an overlayed area for the segmented signals, followed by using the analyze particle tool in Fiji to determine by > 1‐pixel overlapping of the segmented signal. […]

Two molecules from paper PMC13534789, “Molecular Glue Degraders Enhance CAPRIN1‐Dependent Lysosomal Degradation of APP and Reduce Amyloid β in Alzheimer's Disease” (Advanced Science, 2026) can be followed below.

CAPRIN1–APP interaction, sequence (Q14444 2-709 limits assumed): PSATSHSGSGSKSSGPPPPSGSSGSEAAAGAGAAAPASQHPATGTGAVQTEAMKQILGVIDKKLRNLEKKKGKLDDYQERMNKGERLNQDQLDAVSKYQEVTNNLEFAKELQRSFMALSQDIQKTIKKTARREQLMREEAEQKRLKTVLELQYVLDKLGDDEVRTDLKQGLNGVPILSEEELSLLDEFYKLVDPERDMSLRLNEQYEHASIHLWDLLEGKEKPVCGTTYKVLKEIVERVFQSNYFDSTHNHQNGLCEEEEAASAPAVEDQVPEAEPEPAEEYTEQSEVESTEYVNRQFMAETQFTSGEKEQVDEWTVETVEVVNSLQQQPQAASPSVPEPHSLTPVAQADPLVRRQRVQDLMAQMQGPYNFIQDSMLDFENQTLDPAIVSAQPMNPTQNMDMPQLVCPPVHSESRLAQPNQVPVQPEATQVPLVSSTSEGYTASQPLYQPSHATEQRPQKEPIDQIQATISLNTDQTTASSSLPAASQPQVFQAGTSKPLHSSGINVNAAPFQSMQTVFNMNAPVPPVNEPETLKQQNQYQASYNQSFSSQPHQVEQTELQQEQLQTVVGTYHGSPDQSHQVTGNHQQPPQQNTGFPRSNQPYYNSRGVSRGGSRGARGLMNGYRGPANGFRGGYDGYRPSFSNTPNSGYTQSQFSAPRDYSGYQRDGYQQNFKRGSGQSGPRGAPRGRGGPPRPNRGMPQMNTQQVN
CAPRIN1–APP interaction, sequence (P05067 18-695 isoform P05067-4 limits assumed): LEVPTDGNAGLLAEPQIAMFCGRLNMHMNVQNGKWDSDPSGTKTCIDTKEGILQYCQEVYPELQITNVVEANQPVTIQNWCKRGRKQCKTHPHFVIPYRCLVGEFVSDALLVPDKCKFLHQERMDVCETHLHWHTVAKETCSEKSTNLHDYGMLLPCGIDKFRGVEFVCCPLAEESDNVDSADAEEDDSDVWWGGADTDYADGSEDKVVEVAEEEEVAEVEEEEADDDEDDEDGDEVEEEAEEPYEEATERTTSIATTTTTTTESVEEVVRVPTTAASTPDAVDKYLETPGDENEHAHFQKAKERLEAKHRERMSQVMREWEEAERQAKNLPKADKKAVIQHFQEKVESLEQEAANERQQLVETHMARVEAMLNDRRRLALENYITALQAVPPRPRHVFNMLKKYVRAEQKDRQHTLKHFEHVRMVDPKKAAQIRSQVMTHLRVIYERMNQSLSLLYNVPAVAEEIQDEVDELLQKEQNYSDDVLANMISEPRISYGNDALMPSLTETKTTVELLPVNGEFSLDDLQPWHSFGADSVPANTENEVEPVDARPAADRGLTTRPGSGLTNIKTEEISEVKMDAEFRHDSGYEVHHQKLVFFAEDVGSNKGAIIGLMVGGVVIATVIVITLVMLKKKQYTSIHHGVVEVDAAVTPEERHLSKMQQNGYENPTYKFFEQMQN

In the case of `N#Cc1cccc(NC(=O)Nc2nc3ccc(C(=O)N4CCOCC4)cc3s2)c1` [compound 0043], in data set [1] (C57BL/6, 1 mg/kg, IV, 1 mpk), the AUC(0-t) was determined as 219 ng·h/mL, the half-life is 9.6 min and the C0 stood at 1380 ng/mL. Further, in data set [1] (C57BL/6, 10 mg/kg, PO, 10 mpk), the AUC(0-t) came to 107 ng·h/mL, the Tmax was determined as 15 min, the half-life was 95.4 min and the Cmax is 97.5 ng/mL. For the same molecule, in data set [1], the bioavailability came to 5%. Further, in data set [1] (IV, 1 mpk), the clearance stood at 75.3 mL/min/kg and the Vd worked out at 0.77 L/kg. The “APP–CAPRIN1 colocalization (confocal, Pearson's coefficient)” value in data set [2] was “increased co‐localization of APP and CAPRIN1”. The “CAPRIN1–APP interaction (APP IP, CAPRIN1 immunoblot)” value in data set [2] (AG27606-Ns) is “enhances CAPRIN1‐APP interaction”. The “CAPRIN1–APP interaction (co-IP)” value in data set [2] (HEK-APP695 cells) is “enhanced the interaction between CAPRIN1 and APP”.

`COc1cccc(NC(=O)Nc2nc3ccc(C(=O)N4CCOCC4)cc3s2)c1` [compound 0152]: in data set [1] (C57BL/6, 1 mg/kg, IV, 1 mpk), the AUC(0-t) amounted to 209 ng·h/mL, the half-life was 25.2 min and the C0 was found to be 938 ng/mL. Further, in data set [1] (C57BL/6, 10 mg/kg, PO, 10 mpk), the AUC(0-t) is 624 ng·h/mL, the Tmax was 30 min, the half-life is 144 min and the Cmax was determined as 804 ng/mL. Further, the bioavailability in data set [1] is no more than 30%. In data set [1] (IV, 1 mpk), the clearance came to 78.6 mL/min/kg and the Vd was determined as 1.34 L/kg. The “APP–CAPRIN1 colocalization (confocal, Pearson's coefficient)” value in data set [2] is “increased colocalization of APP and CAPRIN1”.
